ChEMBL document CHEMBL2069272, “Leishmanicidal activities and cytotoxicities of bisnaphthoquinone analogues and naphthol derivatives from Burman Diospyros burmanica” (Bioorg Med Chem, 2012)
Residues, ends and D or L forms follow the SMILES beside them. *: point of attachment. Cbz = O=C(OCc1ccccc1)*

What was measured:
[1] = tested on: Leishmania major; assay: Antileishmanial activity against Leishmania major promastigotes incubated for 48 hrs by MTT assay; format: functional, organism-based
[2] = Toxicity against mouse RAW264.7 cells by XTT assay; format: cell-based
[3] = Selectivity index, ratio of IC50 for mouse RAW264.7 cells to IC50 for Leishmania major promastigotes; format: toxicity, cell-based; details: RAW264.7 cells versus Leishmania major promastigotes, read-out: Ratio IC50

COc1cccc2cc(C=O)cc(O)c12
IC50 [1]: > 100 µM
IC50 [2]: > 100 µM

COc1c(C)cc2cccc(OC)c2c1O
IC50 [1]: 45 µM
selectivity ratio [3]: > 2.22
IC50 [2]: > 100 µM

C[C@@H]1[C@H](O)[C@@H](C)/C=C/C=C/C=C/C=C/C=C/C=C/C=C/[C@H](O[C@@H]2O[C@H](C)[C@@H](O)[C@H](N)[C@@H]2O)C[C@@H]2O[C@](O)(C[C@@H](O)C[C@@H](O)[C@H](O)CC[C@@H](O)C[C@@H](O)CC(=O)O[C@H]1C)C[C@H](O)[C@H]2C(=O)O [AMPHOTERICIN B]
IC50 [1]: 0.035 µM

COc1ccc(OC)c2c1C(=O)C=C(C)C2=O
IC50 [2]: > 100 µM

COc1c(C)cc(O)c2c(OC)cccc12
IC50 [1]: > 100 µM
IC50 [2]: > 100 µM

COc1cccc2c1C(=O)C(O)=C(C)C2=O
IC50 [1]: > 100 µM
IC50 [2]: > 100 µM

CC(C)C[C@@H](C=O)NC(=O)[C@H](CC(C)C)NC(=O)[C@H](CC(C)C)NC(=O)OCc1ccccc1 [MG-132] (Cbz-Leu-Leu-Leu-aldehyde)
IC50 [2]: 0.63 µM

COc1cccc2cc(C)cc(O)c12
IC50 [1]: 50 µM
selectivity ratio [3]: > 2
IC50 [2]: > 100 µM

COc1cc(C)cc2c1C(=O)C=C(c1c(C)cc3ccc(O)c(OC)c3c1O)C2=O [BURMANIN B]
IC50 [1]: 0.18 µM
selectivity ratio [3]: 172
IC50 [2]: 31 µM

COc1ccc(OC)c2c(O)cc(C)cc12
IC50 [1]: 38 µM
selectivity ratio [3]: > 2.63
IC50 [2]: > 100 µM

COc1cc(C)cc2c1C(=O)C=C(C1=C(C)C(=O)c3ccc(O)c(OC)c3C1=O)C2=O [BURMANIN A]
IC50 [1]: 0.053 µM
selectivity ratio [3]: 453
IC50 [2]: 24 µM

COc1c(O)ccc2c1C(=O)C(C)=CC2=O
IC50 [1]: 93 µM
selectivity ratio [3]: 1.03
IC50 [2]: 96 µM

COc1cc(C)cc2c1C(=O)C=C(c1c(C)c(OC)c3ccc(O)c(OC)c3c1O)C2=O [BURMANIN C]
IC50 [1]: 0.15 µM
selectivity ratio [3]: 147
IC50 [2]: 22 µM

COc1cccc2c1C(=O)C=C(C)C2=O
IC50 [1]: 3.3 µM
selectivity ratio [3]: 13.6
IC50 [2]: 45 µM
